Data: PMC9841589, “Identification of 2-Aminoacyl-1,3,4-thiadiazoles as Prostaglandin E2 and Leukotriene Biosynthesis Inhibitors” (ACS Medicinal Chemistry Letters, 2022)

How the values were obtained:
[1] = target: T1, COX-2 (Homo sapiens, UniProt P35354); assay: Cell-free COXs activity assay, COX-2; assay type: biochemical; settings: percentage of uninhibited control (100%), n = 3, n.i.: no inhibitory activity observed, read-out: COX-2 residual activity (%)
T1 sequence (P35354 18-604): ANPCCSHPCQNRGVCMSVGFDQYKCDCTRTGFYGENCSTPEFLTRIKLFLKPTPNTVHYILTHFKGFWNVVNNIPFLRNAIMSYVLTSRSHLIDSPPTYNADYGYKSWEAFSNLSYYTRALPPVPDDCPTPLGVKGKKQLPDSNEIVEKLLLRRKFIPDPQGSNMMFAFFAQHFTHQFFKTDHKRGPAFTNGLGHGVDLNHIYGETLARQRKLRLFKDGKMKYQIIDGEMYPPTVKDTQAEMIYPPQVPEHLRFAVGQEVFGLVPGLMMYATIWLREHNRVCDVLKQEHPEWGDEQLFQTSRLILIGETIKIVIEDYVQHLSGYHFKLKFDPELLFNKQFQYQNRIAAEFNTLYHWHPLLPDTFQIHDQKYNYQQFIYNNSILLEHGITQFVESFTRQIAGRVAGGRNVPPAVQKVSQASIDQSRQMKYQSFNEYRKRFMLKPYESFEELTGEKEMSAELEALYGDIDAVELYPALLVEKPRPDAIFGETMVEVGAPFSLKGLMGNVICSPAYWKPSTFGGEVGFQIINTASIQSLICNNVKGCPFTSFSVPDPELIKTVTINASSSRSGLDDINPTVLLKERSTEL
Method: Cell-free COXs activity assay
Isolated COX-1 (ovine) and COX-2 (human) were used for the evaluation of the activity of test compounds 3, 6, 7, and 9 on cyclooxygenases. COXs were diluted using Tris buffer (100 mM, pH = […]
8) plus 5 mM glutathione, 100 µM EDTA and 5 µM hemoglobin) to a final concentration of 50 U/mL for COX-1 and 20 U/mL for COX-2, and pre-incubated with test compounds 3, 6, 7, and 9 (10 µM) or vehicle (0.1% DMSO) over 5 min at rt. After 1 min at 37 °C, reactions were started after addition of arachidonic acid to a final concentration of 5 µM for COX-1 and 2 µM for COX-2. After 5 min at 37 °C, 1 mL of ice-cold methanol was added for stopping the reactions on ice. Then, PGB 1 as internal standard and 530 µl PBS plus HCl were added, and solid-phase extraction was performed as reported before.4-6, 17-19 COXs product formation (12-HHT) was determined using RP-HPLC. 4-6, 17-19 Indomethacin (10 µM) and celecoxib (5 µM) were used as reference drugs.
Expression, purification and activity assay of human recombinant sEH
Human recombinant sEH was expressed in Sf9 cells and was infected using a baculovirus, provided by Dr. B. Hammock, University of California, Davis, CA. After 72 hours, cells were pelleted and sonicated (3 × 10 sec) at 4 °C in lysis buffer (50 mM NaHPO 4, pH = 8, 300 mM NaCl, 10% glycerol, 1 mM EDTA, 1 mM phenylmethanesulfonyl fluoride, 10 µg/mL of leupeptin, and 60 µg/mL of soybean trypsin inhibitor). Lysates were centrifuged over 60 min at 4 °C (100,000 × g), and supernatants were collected and submitted to a benzylthio-sepharose-affinity chromatography for sEH purification by elution with 4-fluorochalcone oxide in PBS plus 1 mM DTT and 1 mM EDTA.720 […]
DMSO) for 15 min at rt. 50 µM 3-phenyl-cyano(6-methoxy-2-naphthalenyl)methyl ester-2-oxiraneacetic acid (PHOME), a non-fluorescent compound, was added for starting the reaction.
PHOME is enzymatically converted into a fluorescent compound, 6-methoxy-naphtaldehyde, detectable by using a spectrofluorometer setting λ em = 465 nm, λ ex = 330 nm. After 60 min, ZnSO 4

[2] = tested on: PGE2 production in IL-1β-stimulated A549 cells; assay: Inhibition of PGE2 production in IL-1β-stimulated A549 cells; assay type: cell-based, human; settings: A549, IL-1β 10 ng/mL, 5 and 10 μM, 24 h, ELISA
Method: Figure 3 (A) A549 cells in conditioned medium (1% FBS and 10 ng/mL IL-1β) were incubated for 24 h with 5 and 10 μM of compound 3, 6, 7, and 9. PGE2 released into the medium was quantified using a specific ELISA. Control cells were stimulated with IL-1β, treated with vehicle (DMSO), and expressed as mean ± SEM (pg/mL), n = 2. (B) A549 cell line was used to perform a MTT assay. A549 were treated with 3, 6, 7, and 9 (test compounds, 10 μM), staurosporine (1 μM, positive control), or vehicle (0.1% DMSO) for 48 h. (C) Human monocytes were used to perform a MTT assay. Cells were treated with 3, 6, 7, and 9 (test compounds, 10 μM), Triton X-100 (1%, positive control), or vehicle (0.5% DMSO) for 24 h. Data are expressed as a percentage of control (100%), means, SEM, n = 3.
Carslbad, CA, USA), in 5% CO2 humid atmosphere. The cells were subcultured every 2 days and were tested for Mycoplasma using PCR analysis.Inhibition of PGE2 production in cells A549 cells were plated at 10.000 cells/well in DMEM with 10% FBS-medium in a 96-well plate; after overnight incubation, the cells were treated with 5 and 10 µM of 3, 6, 7, 9 compounds in DMEM 1%FBS and IL-1β (10 ng/ml) to upregulate PG synthase expression.
After 24 h, the amount of PGE2 released in the supernatant was evaluated by a commercially available enzyme immunoassay kit (Prostaglandin E2 EIA kit Monoclonal, Cayman Chemical), and at the same time was evaluated cell viability by MTT using (3-4,5-[…])-2,5-diphenyl tetrazolium bromide reagent (Sigma-Aldrich). Following the treatment, 20 µL of MTT (5 mg/mL in PBS) was added, and the cells were incubated for additional 3 h at 37°C. […]
The absorbance was measured at 570 nm with a Multiskan™ GO Microplate Spectrophotometer (Thermo Fisher Scientific, USA). […]
MTT (5 mg/mL) was added, and after 1 h (37 °C, 5% CO 2) the medium was replaced with DMSO (100 µL per well). Finally, formazan formation was detected by the measurement of absorbance at […]
Acute cytotoxicity of compounds 3, 6, 7, 9 was analyzed on human monocytes. […]

| remaining activity at 10 µM [1] [%] | SMILES | PGE2 released into the medium [2] |
| --- | --- | --- |
| 83.1 | Cc1cc(C(=O)Nc2nnc(-c3ccc(-c4ccccc4N)cc3)s2)cc(Cl)n1 [compound 6] | able to suppress the biosynthesis of PGE2 in a concentration-dependent manner |
| 72.7 | Nc1ccccc1-c1ccc(-c2nnc(NC(=O)c3c(Cl)ccnc3Cl)s2)cc1 [compound 9] | able to suppress the biosynthesis of PGE2 in a concentration-dependent manner |
| 65.4 | O=C(Nc1nnc(-c2ccc(-c3cccc(O)c3)cc2)s1)c1ccccc1Br [compound 3] |  |
| 194 | Nc1ccccc1-c1ccc(-c2nnc(NC(=O)c3ccccc3Br)s2)cc1 [compound 7] | able to suppress the biosynthesis of PGE2 in a concentration-dependent manner |
